Assay type in all cases: functional, cell-based
One test has as its system HeLa. Kind of test: Cytotoxicity against human HeLa cells assessed as reduction in cell viability incubated for 48 hrs by MTT assay. (In general: Tetrazolium assays rely on reduction of a dye to a coloured formazan, in cell work by metabolically active cells.)
A further test concerns SMMC-7721. Kind of test: Cytotoxicity against human SMMC-7721 cells assessed as reduction in cell viability incubated for 48 hrs by MTT assay. The settings on record: SMMC-7721, 48 h.
The next test relates to HepG2. The experiment in a line: Cytotoxicity against human HepG2 cells assessed as reduction in cell viability incubated for 48 hrs by MTT assay. The settings on record: HepG2, 48 h.
A further test concerns HL-60. Kind of test: Cytotoxicity against human HL-60 cells assessed as reduction in cell viability incubated for 48 hrs by MTT assay. The settings on record: HL-60, 48 h.

Results on 3 compounds are retold here after ChEMBL document CHEMBL5236559 (J Med Chem, 2021).

Usually IC50 stands for the midpoint of a concentration-inhibition curve. For `NCCCCCC(=O)Nc1cccc([As]2SCCCS2)c1`, the IC50 is above 10 µM in the test with HeLa, above 10 µM in the test with SMMC-7721, 5.48 µM in the test on HepG2 and 1.51 µM in the test on HL-60.
In the case of `NCCCCCC(=O)Nc1ccccc1[As]1SCCCS1`, the 50% inhibitory concentration (IC50) in the test on HeLa is above 10 µM; in the test on SMMC-7721 it was above 10 µM; with HepG2, 8.47 µM; with HL-60, 1.64 µM.
On to `NCCCCCC(=O)Nc1ccc([As]2SCCCS2)cc1`, for which the concentration for half-maximal inhibition (IC50) was above 10 µM in the test on HeLa, above 10 µM in the test on SMMC-7721, 5.36 µM with HepG2 and 1.25 µM with HL-60.
